Results published in paper PMC3059404 (Bioconjugate chemistry, 2011).

System: MDA-MB-435 tumor-bearing mice
Experiment: Small animal PET, organ uptake in orthotopic MDA-MB-435 tumor-bearing mice
Type: in vivo, athymic nude mice
Conditions: co-injection with excess (0.5 μmol, 300 μg) c(RGDfk), 0.5 h

**Q.** For “4-^18F-fluoro-3-trifluoromethylbenzoyl-E[c(RGDfk)2] [^18F-4]”, which “reduction of tumor uptake by blocking” value is on record?
**A.** Its value is 82%.
